Assay results reported in the NIST ThermoML archive (doi:10.1016/j.jct.2016.07.037).
Numbers after ± are expanded uncertainties. Values belong to the molecule of their own block, whether it stands above or below them.

Legend:
[1] = Crystal; for vapor or sublimation pressure: Calculated from knudsen effusion weight loss; for Normal melting temperature: DTA
[2] = Molar enthalpy of transition or fusion; conditions: Crystal; DSC
[3] = molar heat capacity at constant pressure; conditions: 298.15 K; 101.33 kPa; Crystal; Drop calorimetry
[4] = molar enthalpy of vaporization or sublimation; conditions: 298.15 K; Crystal; Static calorimetry

- molar heat capacity at constant pressure [3]: 563.9 ± 13 J/K/mol
SMILES: OCC(F)(F)C(F)(F)C(F)(F)C(F)(F)C(F)(F)C(F)(F)C(F)(F)C(F)(F)C(F)(F)F [1H,1H-perfluoro-1-decanol]

- vapor or sublimation pressure ([1]; 303.6 K): 6.95e-05 ± 2e-05 kPa
- vapor or sublimation pressure ([1]; 306.1 K): 0.0001 ± 2e-05 kPa
- vapor or sublimation pressure ([1]; 308.6 K): 0.000143 ± 2.1e-05 kPa
- vapor or sublimation pressure ([1]; 311 K): 0.000196 ± 2.1e-05 kPa
- vapor or sublimation pressure ([1]; 313.5 K): 0.000273 ± 2.2e-05 kPa
- vapor or sublimation pressure ([1]; 316 K): 0.000376 ± 2.4e-05 kPa
- vapor or sublimation pressure ([1]; 318.5 K): 0.000517 ± 2.7e-05 kPa
- vapor or sublimation pressure ([1]; 321 K): 0.000727 ± 3.3e-05 kPa
- vapor or sublimation pressure ([1]; 323.5 K): 0.001007 ± 7.8e-05 kPa
- Normal melting temperature [1]: 114.2 ± 1.3 °C
- Molar enthalpy of transition or fusion [2]: 5.88 ± 0.311 kcal/mol
- molar heat capacity at constant pressure [3]: 645.2 ± 15 J/K/mol
- molar enthalpy [4]: 26.4 ± 0.86 kcal/mol
SMILES: OCC(F)(F)C(F)(F)C(F)(F)C(F)(F)C(F)(F)C(F)(F)C(F)(F)C(F)(F)C(F)(F)C(F)(F)C(F)(F)F [1H,1H-perfluoro-1-dodecanol]

- molar heat capacity at constant pressure [3]: 602.4 ± 14 J/K/mol
SMILES: OCC(F)(F)C(F)(F)C(F)(F)C(F)(F)C(F)(F)C(F)(F)C(F)(F)C(F)(F)C(F)(F)C(F)(F)F [1H,1H-perfluoroundecan-1-ol]

Further lines, the molecule ahead of its results:

SMILES: OCC(F)(F)C(F)(F)C(F)(F)C(F)(F)C(F)(F)C(F)(F)C(F)(F)C(F)(F)C(F)(F)C(F)(F)C(F)(F)C(F)(F)C(F)(F)F
- vapor or sublimation pressure ([1]; 328.6 K): 0.00014 ± 2.1e-05 kPa
- vapor or sublimation pressure ([1]; 330.6 K): 0.000172 ± 2.1e-05 kPa
- vapor or sublimation pressure ([1]; 332.5 K): 0.000231 ± 2.2e-05 kPa
- vapor or sublimation pressure ([1]; 334.5 K): 0.000302 ± 2.3e-05 kPa
- vapor or sublimation pressure ([1]; 336.5 K): 0.000391 ± 2.4e-05 kPa
- vapor or sublimation pressure ([1]; 338.4 K): 0.000502 ± 2.7e-05 kPa
- vapor or sublimation pressure ([1]; 340.4 K): 0.000642 ± 3e-05 kPa
- Normal melting temperature [1]: 139.2 ± 0.5 °C
- Molar enthalpy of transition or fusion [2]: 9.08 ± 0.454 kcal/mol
- molar heat capacity at constant pressure [3]: 725.3 ± 17 J/K/mol
- molar enthalpy [4]: 30.2 ± 0.932 kcal/mol

SMILES: OCC(F)(F)C(F)(F)C(F)(F)C(F)(F)C(F)(F)C(F)(F)C(F)(F)C(F)(F)F [2,2,3,3,4,4,5,5,6,6,7,7,8,8,9,9,9-heptadecafluoro-1-nonanol]
- molar heat capacity at constant pressure [3]: 515.9 ± 12 J/K/mol
